Reference: patent US10221177B2 (HYDRA BIOSCIENCES, INC., priority 2014, dated 2019)

Target: human TRPA1 (Homo sapiens (Human), UniProt O75762)
Experiment: In vitro inhibition of human TRPA1, whole cell patch configuration
Format: cell-based
Conditions: current activation 10 μM AITC, tested concentrations 320 pM to 3.2 μM, read-out: hTRPA1 IC50
How it was run: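 Compound antagonism measured from voltage ramps (±100 or ±80 mV, 400 ms, every 4 s from −40 mV), analysed at −80 and 80 mV, or at constant −60 mV. HEPES-buffered NaCl bath, pH 7.4, EGTA or 2 mM Ca2+; temperature set by perfusion, within ±2° C; no junction-potential correction.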

Chain of human TRPA1 (O75762 whole entry): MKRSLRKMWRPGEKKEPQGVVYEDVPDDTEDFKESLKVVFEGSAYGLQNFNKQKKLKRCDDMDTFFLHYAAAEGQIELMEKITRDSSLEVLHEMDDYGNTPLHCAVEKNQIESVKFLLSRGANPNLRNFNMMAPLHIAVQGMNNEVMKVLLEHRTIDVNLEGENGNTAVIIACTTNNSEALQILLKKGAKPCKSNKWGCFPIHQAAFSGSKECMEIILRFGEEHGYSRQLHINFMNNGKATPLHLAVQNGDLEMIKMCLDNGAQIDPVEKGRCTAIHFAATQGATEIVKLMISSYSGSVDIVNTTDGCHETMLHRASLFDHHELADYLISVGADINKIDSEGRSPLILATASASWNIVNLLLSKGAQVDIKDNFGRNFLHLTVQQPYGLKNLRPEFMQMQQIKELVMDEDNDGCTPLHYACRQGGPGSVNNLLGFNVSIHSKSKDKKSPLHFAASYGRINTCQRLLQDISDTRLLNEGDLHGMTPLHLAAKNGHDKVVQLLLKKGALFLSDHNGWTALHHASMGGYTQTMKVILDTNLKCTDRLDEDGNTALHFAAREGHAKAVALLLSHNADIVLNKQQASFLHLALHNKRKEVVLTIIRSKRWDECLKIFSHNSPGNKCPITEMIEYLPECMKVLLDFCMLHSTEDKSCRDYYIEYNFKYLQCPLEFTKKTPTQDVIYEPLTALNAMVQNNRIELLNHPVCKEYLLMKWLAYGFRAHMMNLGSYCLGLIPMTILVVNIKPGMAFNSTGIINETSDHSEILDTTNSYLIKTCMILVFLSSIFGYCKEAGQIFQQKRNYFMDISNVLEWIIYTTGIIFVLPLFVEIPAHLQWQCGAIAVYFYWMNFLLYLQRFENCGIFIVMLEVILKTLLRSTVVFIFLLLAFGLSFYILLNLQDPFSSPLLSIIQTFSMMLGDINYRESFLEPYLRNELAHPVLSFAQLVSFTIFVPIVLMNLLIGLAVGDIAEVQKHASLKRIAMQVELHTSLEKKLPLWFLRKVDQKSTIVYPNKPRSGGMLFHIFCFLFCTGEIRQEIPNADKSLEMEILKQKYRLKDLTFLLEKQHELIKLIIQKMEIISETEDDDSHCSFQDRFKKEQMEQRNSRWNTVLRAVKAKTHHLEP

Row | IC50 | SMILES
1 | 8 nM | CCC(=O)Cn1c(=O)c2c(ncn2C(C)C(=O)Nc2ccnc(-c3cnc(N4CC5CC5C4)nc3)n2)n(C)c1=O (stereo not drawn) [Compound 17, N-(2′-(3-azabicyclo[3.1.0]hexan-3-yl)-2,5′-bipyrimidin-4-yl)-2-(3-methyl-2,6-dioxo-1-(2-oxobutyl)-2,3-dihydro-1H-purin-7(6H)-yl)propanamide]
2 | 49 nM | CC(=O)Cn1c(=O)c2c(ncn2[C@@H](C)C(=O)Nc2cncc(-c3ccc(C(F)(F)F)nc3)n2)n(C)c1=O [Compound 3, (S)-2-(3-methyl-2,6-dioxo-1-(2-oxopropyl)-2,3-dihydro-1H-purin-7(6H)-yl)-N-(6-(6-(trifluoromethyl)pyridin-3-yl)pyrazin-2-yl)propanamide]
3 | 25 nM | Cc1cc(Cn2c(=O)c3c(ncn3[C@@H](C)C(=O)Nc3cccc(-c4cnc(C)c(C)c4)n3)n(C)c2=O)no1 [Compound 127, (S)—N-(5′,6′-dimethyl-[2,3′-bipyridin]-6-yl)-2-(3-methyl-1-((5-methylisoxazol-3-yl)methyl)-2,6-dioxo-2,3-dihydro-1H-purin-7(6H)-yl)propanamide]
4 | 3 nM | COCC(=O)Cn1c(=O)c2c(ncn2[C@@H](C)C(=O)Nc2cccc(-c3cnc(N4CC5C(C4)C5(F)F)nc3)n2)n(C)c1=O (stereo partly drawn) [Compound 146, (2S)—N-(6-(2-(6,6-difluoro-3-azabicyclo[3.1.0]hexan-3-yl)pyrimidin-5-yl)pyridin-2-yl)-2-(1-(3-methoxy-2-oxopropyl)-3-methyl-2,6-dioxo-2,3-dihydro-1H-purin-7(6H)-yl)propanamide]
5 | 6 nM | Cc1noc(Cn2c(=O)c3c(ncn3[C@@H](C)C(=O)Nc3cccc(-c4cnc(C(F)(F)F)c(C)c4)n3)n(C)c2=O)n1 [Compound 131, (S)-2-(3-methyl-1-((3-methyl-1,2,4-oxadiazol-5-yl)methyl)-2,6-dioxo-2,3-dihydro-1H-purin-7(6H)-yl)-N-(5′-methyl-6′-(trifluoromethyl)-[2,3′-bipyridin]-6-yl)propanamide]

Continued, molecule first:

Row | SMILES | IC50
6 | CC(=O)Cn1c(=O)c2c(ncn2[C@@H](C)C(=O)Nc2ccnc(-c3cnc(C)c(C(F)(F)F)c3)n2)n(C)c1=O [Compound 111] | 3 nM
7 | CCC(=O)Cn1c(=O)c2c(ncn2[C@@H](C)C(=O)Nc2csc(-c3cnc(C)c(Cl)c3)n2)n(C)c1=O [Compound 90] | 3 nM
8 | Cn1c(=O)n(Cc2ccccn2)c(=O)c2c1ncn2CC(=O)Nc1csc(-c2cnc(C(F)(F)F)nc2)n1 [Compound 191, 2-(3-methyl-2,6-dioxo-1-(pyridin-2-ylmethyl)-2,3-dihydro-1H-purin-7(6H)-yl)-N-(2-(2-(trifluoromethyl)pyrimidin-5-yl)thiazol-4-yl)acetamide] | 51 nM
9 | C[C@@H](C(=O)Nc1csc(-c2ccc(Cl)c(Cl)c2)n1)n1cnc2c1c(=O)n(CC#N)c(=O)n2C [Compound 29, (S)-2-(1-(cyanomethyl)-3-methyl-2,6-dioxo-2,3-dihydro-1H-purin-7(6H)-yl)-N-(2-(3,4-dichlorophenyl)thiazol-4-yl)propanamide] | 1 nM
10 | CC(=O)Cn1c(=O)c2c(ncn2CC(=O)Nc2cccc(-c3ccc(Cl)cc3)n2)n(C)c1=O [Compound 181, N-(6-(4-chlorophenyl)pyridin-2-yl)-2-(3-methyl-2,6-dioxo-1-(2-oxopropyl)-1,2,3,6-tetrahydropurin-7-yl)acetamide] | 19 nM
11 | CC(=O)Cn1c(=O)c2c(ncn2[C@@H](C)C(=O)Nc2csc(-c3ccc(Cl)c(Cl)c3)n2)n(C)c1=O [Compound 20, (S)—N-(2-(3,4-dichlorophenyl)thiazol-4-yl)-2-(3-methyl-2,6-dioxo-1-(2-oxopropyl)-2,3-dihydro-1H-purin-7(6H)-yl)propanamide] | 2 nM
12 | Cc1cc(Cn2c(=O)c3c(ncn3[C@@H](C)C(=O)Nc3cncc(-c4cnc(C(F)(F)F)c(C)c4)n3)n(C)c2=O)no1 [Compound 130, (S)-2-(3-methyl-1-((5-methylisoxazol-3-yl)methyl)-2,6-dioxo-2,3-dihydro-1H-purin-7(6H)-yl)-N-(6-(5-methyl-6-(trifluoromethyl)pyridin-3-yl)pyrazin-2-yl)propanamide] | 8 nM
